Laboratory results published in US10307413B2, “Tetrahydro- and dihydro-isoquinoline PRMT5 inhibitors and uses thereof” (Epizyme, Inc., priority 2013, dated 2019).

Columns and labels:
[1] = tested on: symmetric di-methyl arginine in Z-138 cells; assay: Z-138 Methylation Assay (In Cell Western for symmetric di-methyl arginine and DNA content); type: cell-based; conditions: Homo sapiens, In Cell Western methylation, read-out: ICW EC50
Method in brief: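 Z-138 cells (50,000 cells/mL) treated with compound 96 h at 37 °C, then fixed and stained for symmetric di-methyl arginine (800 nm) with DRAQ5 DNA counterstain (700 nm) on Licor Odyssey.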

PRMT5/MEP50 = PRMT5/MEP50 (Homo sapiens (Human), UniProt O14744); assay: PRMT5 Biochemical Assay (PRMT5/MEP50 enzyme assay on peptide substrate, 3H-SAM Flashplate); conditions: PRMT5 biochemical assay
Chain of PRMT5/MEP50 (O14744 other isoform, or with tags, fused parts or gaps): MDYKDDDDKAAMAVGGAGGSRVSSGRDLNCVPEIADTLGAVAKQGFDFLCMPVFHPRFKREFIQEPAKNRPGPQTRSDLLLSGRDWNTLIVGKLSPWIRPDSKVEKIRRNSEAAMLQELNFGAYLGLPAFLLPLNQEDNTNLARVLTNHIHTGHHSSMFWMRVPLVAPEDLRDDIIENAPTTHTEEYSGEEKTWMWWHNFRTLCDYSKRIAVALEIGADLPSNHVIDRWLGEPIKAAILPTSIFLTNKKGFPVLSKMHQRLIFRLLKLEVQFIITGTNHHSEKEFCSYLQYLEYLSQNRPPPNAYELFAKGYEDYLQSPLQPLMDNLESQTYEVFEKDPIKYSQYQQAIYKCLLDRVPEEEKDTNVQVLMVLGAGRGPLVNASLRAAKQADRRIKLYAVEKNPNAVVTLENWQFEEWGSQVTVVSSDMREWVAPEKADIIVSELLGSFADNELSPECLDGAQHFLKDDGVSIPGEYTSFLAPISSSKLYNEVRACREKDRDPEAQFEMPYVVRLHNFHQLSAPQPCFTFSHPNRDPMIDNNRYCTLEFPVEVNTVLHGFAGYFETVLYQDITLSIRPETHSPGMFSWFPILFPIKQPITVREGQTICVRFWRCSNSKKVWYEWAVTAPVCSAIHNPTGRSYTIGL
Chain of PRMT5/MEP50 (Q9BQA1 other isoform, or with tags, fused parts or gaps partner): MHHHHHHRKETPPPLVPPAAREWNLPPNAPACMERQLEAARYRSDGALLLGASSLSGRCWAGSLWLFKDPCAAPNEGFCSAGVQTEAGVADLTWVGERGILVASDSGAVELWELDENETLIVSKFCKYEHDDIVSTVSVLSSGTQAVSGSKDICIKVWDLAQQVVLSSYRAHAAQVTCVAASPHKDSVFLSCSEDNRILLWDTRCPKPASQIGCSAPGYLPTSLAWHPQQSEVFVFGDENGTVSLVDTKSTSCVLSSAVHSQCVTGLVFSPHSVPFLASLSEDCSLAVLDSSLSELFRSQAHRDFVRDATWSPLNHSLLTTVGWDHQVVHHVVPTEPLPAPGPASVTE
Method in brief: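 Radiometric methylation of a biotin-tagged H4(1-15) peptide by human PRMT5/MEP50 from baculovirus/Sf9, with ³H-SAM incorporation read on streptavidin Flashplates. Buffer: Bicine pH 7.6, TCEP, BSG, Tween20; compound preincubated 30 min at 25 °C; stopped with 600 µM final unlabeled SAM. DMSO and SAH controls; IC50 from fitted % inhibition.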

Z-138 cell line = assay: Z-138 Proliferation Assay (Cell Titer Glo, 5 days); type: cell-based; conditions: Homo sapiens, 120 h; Z-138 cells, 5 days, Cell Titer Glo; read-out: Proliferation EC50
Method in brief: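 Z-138 cells exposed 5 days at 37 °C, 5% CO2 to nine-point 3-fold dilutions (final top 20 μM, 0.2% DMSO), in triplicate. Viability read as ATP by CellTiter-Glo luminescence; IC50 from 4-parameter fit of normalized dose-response curves.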

Compound | EC50 [1] [µM] | IC50 (PRMT5/MEP50) [µM] | EC50 (Z-138 cell line) [µM]
CC(C)CC(=O)N1CC(Nc2cc(C(=O)NC[C@H](O)CN3CCc4ccccc4C3)ccn2)C1 [Compound 504] | < 0.1 | < 0.1 | < 0.1
CC(C)(C)C(=O)N1CC(Nc2cc(C(=O)NC[C@H](O)CN3CCc4ccccc4C3)ccn2)C1 [Compound 505] | < 0.1 | < 0.1 | 0.101 to 1
CNC(=O)[C@H]1C[C@H](Nc2cc(C(=O)NC[C@H](O)CN3CCc4ccccc4C3)ncn2)C1 [Compound 506] | < 0.1 | < 0.1 | 0.101 to 1
CN(C)C(=O)[C@H]1C[C@H](Nc2cc(C(=O)NC[C@H](O)CN3CCc4ccccc4C3)ncn2)C1 [Compound 507] | < 0.1 | < 0.1 | 0.101 to 1
O=C(NC[C@H](O)CN1CCc2ccccc2C1)c1cc(N[C@H]2C[C@H](C(=O)N3CCC3)C2)ncn1 [Compound 509] | < 0.1 | < 0.1 | < 0.1
O=C(NC[C@H](O)CN1CCc2ccccc2C1)c1cc(N[C@H]2C[C@H](C(=O)N3CCCCC3)C2)ncn1 [Compound 511] | < 0.1 | < 0.1 | < 0.1
CNC(=O)[C@H]1C[C@@H](Nc2cc(C(=O)NC[C@H](O)CN3CCc4ccccc4C3)ncn2)C1 [Compound 513] | < 0.1 | < 0.1 | 0.101 to 1
CN(C)C(=O)[C@H]1C[C@@H](Nc2cc(C(=O)NC[C@H](O)CN3CCc4ccccc4C3)ncn2)C1 [Compound 515] | < 0.1 | < 0.1 | 0.101 to 1
O=C(NC[C@H](O)CN1CCc2ccccc2C1)c1cc(N[C@H]2C[C@@H](C(=O)N3CCC3)C2)ncn1 [Compound 517] | < 0.1 | < 0.1 | 0.101 to 1
O=C(NC[C@H](O)CN1CCc2ccccc2C1)c1cc(N[C@H]2C[C@@H](C(=O)N3CCCCC3)C2)ncn1 [Compound 519] | < 0.1 | < 0.1 | 0.101 to 1
O=C(NC[C@H](O)CN1CCc2ccccc2C1)c1cc(N[C@H]2C[C@H](O)C2)ncn1 [Compound 521] | < 0.1 | < 0.1 | 0.101 to 1
CC(C)(C)c1nc(NC2CNC2)cc(C(=O)NC[C@H](O)CN2CCc3ccccc3C2)n1 [Compound 522] | < 0.1 | < 0.1 | 1 to 10
COC(CNC(=O)c1cc(NC2COC2)ncn1)CN1CCc2ccccc2C1 (stereo not drawn) [Compound 523] | > 1 | 1 to 10 | > 5
CC(=O)N1CC(Nc2cc(C(=O)NC(C)C(O)CN3CCc4ccccc4C3)ncn2)C1 (stereo not drawn) [Compound 524] | 0.101 to 1 | 0.101 to 1 | > 5
CN(C)CCN(C)c1nc(NC2COC2)cc(C(=O)NC[C@H](O)CN2CCc3ccccc3C2)n1 [Compound 525] | < 0.1 | < 0.1 | 0.101 to 1
O=C(NC[C@H](O)CN1CCc2ccccc2C1)c1cc(NC2COC2)nc(N2CCC2)n1 [Compound 526] | < 0.1 | < 0.1 | 0.101 to 1
CC(C)(C)c1nc(NC2COC2)cc(C(=O)NC[C@H](O)CN2CCc3ccccc3C2)n1 [Compound 527] | < 0.1 | < 0.1 | 0.101 to 1
CN(C)CCN(C)c1nc(NC2CNC2)cc(C(=O)NC[C@H](O)CN2CCc3ccccc3C2)n1 [Compound 528] | 0.101 to 1 | < 0.1 | 0.101 to 1
CN(C)c1nc(NC2CNC2)cc(C(=O)NC[C@H](O)CN2CCc3ccccc3C2)n1 [Compound 529] | 0.101 to 1 | < 0.1 | 0.101 to 1
O=C(NC[C@H](O)CN1CCc2ccccc2C1)c1ccnc(NC2CN(C(=O)C3CCC3)C2)c1 [Compound 530] | < 0.1 | < 0.1 | < 0.1
COCC(=O)N1CC(Nc2cc(C(=O)NC[C@H](O)CN3CCc4ccccc4C3)ncn2)C1 [Compound 531] | < 0.1 | < 0.1 | 0.101 to 1
NC(=O)CN1CCC(Nc2cc(C(=O)NC[C@H](O)CN3CCc4ccccc4C3)ncn2)CC1 [Compound 532] | < 0.1 | < 0.1 | 0.101 to 1
CNC(=O)CN1CCC(Nc2cc(C(=O)NC[C@H](O)CN3CCc4ccccc4C3)ncn2)CC1 [Compound 533] | < 0.1 | < 0.1 | < 0.1
CC(NC(=O)c1cc(NC2CCNCC2)ncn1)C(O)CN1CCc2ccccc2C1 (stereo not drawn) [Compound 534] | > 1 | 0.101 to 1 | > 5
CC(NC(=O)c1cc(NC2CCN(C)CC2)ncn1)C(O)CN1CCc2ccccc2C1 (stereo not drawn) [Compound 535] | 0.101 to 1 | 0.101 to 1 | > 5
